In patent EP4722217A1, “PYRIMIDO-PYRIDINE COMPOUND, PHARMACEUTICAL COMPOSITION THEREOF AND USE THEREOF” (Sunshine Lake Pharma Co., Ltd., priority 2023, dated 2025):

How the values were obtained:
Type in all cases: cell-based
[1] = tested on: GP2D; test: 3D-CTG proliferation inhibition of GP2D cells; details: cell proliferation, read after the 8th day of incubation, read-out: GP2D, IC50 (nM) KRAS G12D
Procedure: (§1) • (1) GP2D and HPAC cells were revived in DMEM medium containing 10% fetal bovine serum and used for experiments after the cells were recovered. • (2) On the first day, the cells were rinsed once with PBS, preheated trypsin was added, and the cells were placed in a 37 °C 5% CO2 incubator for 3-5 minutes. The digestion was terminated by adding an appropriate amount of complete culture medium (containing 10% fetal bovine serum), and the cells were transferred to a centrifuge tube and centrifuged at 1000 rpm for 5 minutes. • (3) The cells were resuspended in complete culture medium, counted, and adjusted to the appropriate cell concentration with complete culture medium. • (4) Using the ECHO 655 ultrasonic liquid handling system, 0.2 µl of the prepared 200× serial dilution compound (final DMSO concentration of 0.5%) was added to a 384-well plate. 40 µl of the cell suspension counted in step (3) was then added to each well and the plate was incubated in a 5% CO2 incubator at 37 °C. • (6) After the 8th day of incubation, 3D CTG detection reagent was added to each well. • (7) Signal values were read using Envision. • (8) Data analysis: • a) DMSO and culture medium were used to test the stability of the experimental method: • H = DMSO well • L = Culture medium well H, CV% (DMSOwell) = 100 × (SDvalueofDMSOwell/averagevalueofDMSOwell) [formula] L, CV% (correspondingculturemediumwell) = 100 × (SDvalueofculturemediumwell/average [formula] value of corresponding culture medium well) [formula] [formula] • b) IC50 values were fitted using the nonlinear regression equation in XLfit 5.5.0 software. Y = Bottom + (Top−Bottom)/(1+10^(∧)((LogIC50−X)*HillSlope)) [formula] • X: Log value of compound concentration • Y: Inhibition rate (% inh)

[2] = tested on: pERK in KRAS G12D mutant cell line ASPC-1; test: Inhibitory effect on intracellular pERK by In-Cell Western Assay (96-well); details: Homo sapiens, ASPC1; pERK inhibition, ASPC-1 cells, 2 h incubation; read-out: ASPC-1, IC50 (nM) KRAS p.G12D
Procedure: (2) On the first day, the following cells were revived with the corresponding culture medium and incubated in a 5% CO2 incubator at 37 °C until confluence:
(2) On the third day, the culture medium was removed, 2 mL of trypsin was added for digestion, and the cells were placed in an incubator until the cells detached. (3) 5 mL of fresh culture medium was added to resuspend the cells to terminate the digestion, and the cells were gently pipetted and centrifuged at 1000 rpm for 5 minutes at room temperature. (4) The supernatant was removed, and 5 mL of new culture medium was added to resuspend the cells and count them. (5) The cells were adjusted to the appropriate cell concentration with complete culture medium and plated in a 96-well plate. 90 µL of cells were added to each well, the cells were incubated in a 5% CO2 incubator at 37 °C overnight. (6) 10 µL of the prepared serial dilution compound (DMSO final concentration was 0.5%) was added and the cells were incubated in a 5% CO2 incubator at 37 °C for 2 h. (7) The supernatant was discarded, and 200 µL of 4% paraformaldehyde fixative was added to fix the cells. (8) The cells were washed three times with TBST. (9) The blocking solution was added and the cells were incubated at room temperature for 1 h. […]

[3] = tested on: pERK in KRAS G12D mutant cell line AGS; test: Inhibitory effect on intracellular pERK by In-Cell Western Assay (384-well); details: Homo sapiens; pERK inhibition, AGS cells, 3 h incubation; read-out: AGS, IC50 (nM) KRAS p.G12D
Procedure: (7) The cells were fixed. (8) The cells were washed twice with PBS. (9) The blocking solution was added and the cells were incubated at room temperature for 1 h. […] (11) The cells were washed twice with PBST (PBS + 0.05% Tween 20) for 2 minutes each time.

[4] = tested on: ASPC-1; test: 3D-CTG proliferation inhibition of KRAS G12D mutant cells; details: Homo sapiens, ASPC1, cell proliferation, read after the 7th day of incubation
Procedure: (§2) (1) On the first day, the following cells were revived with the corresponding culture medium and incubated in a 5% CO2 incubator at 37 °C until confluence:
(§3) (2) On the second day, the cells were rinsed once with PBS, preheated trypsin was added, and the cells were placed in a 37 °C 5% CO2 incubator for digestion for 3~5 minutes. The digestion was terminated by adding an appropriate amount of complete culture medium (containing 10% fetal bovine serum), and the cells were transferred to a centrifuge tube and centrifuged at 1000 rpm for 5 minutes. (3) The cells were resuspended in complete culture medium, counted, and adjusted to the appropriate cell concentration with complete culture medium. (4) 90 µl/well of cell suspension was added to a 96-well plate and incubated in a 5% CO2 incubator at 37 °C overnight. (5) Each well was added with 10 µl of the prepared 10× serial dilution compound (final DMSO concentration was 0.5%) and incubated in a 37°C 5% CO2 incubator. (6) After the 7th day of incubation, 50 µl of 3D CTG detection reagent was added to each well and the cells were shaken at 350 rpm for 20 minutes. (7) Signal values were read using an enzyme meter. (8) Data analysis: IC50 values were fitted using the nonlinear regression equation in Graphpad software. […]

[5] = tested on: Panc04.03; test: as above; details: Homo sapiens, Panc 04.03, cell proliferation, read after the 7th day of incubation
Procedure: as §2, §3

[6] = tested on: HPAC; test: 3D-CTG proliferation inhibition of HPAC cells; details: Homo sapiens, read-out: IC50 (nM) KRAS G12D, Table D-2, titled HPAC, cell proliferation, read after the 8th day of incubation, read-out: GP2D, IC50 (nM) KRAS G12D
Procedure: as §1, with “L, CV% (correspondingculturemediumwell) = 100 × (SDvalueofculturemediumwell/average [formula] value of corresponding culture medium well) [formula] [formula] • b) IC50 values were fitted using the nonlinear regression equation in XLfit 5.5.0 software. Y = Bottom + (Top−Bottom)/(1+10^(∧)((LogIC50−X)*HillSlope)) [formula] • X: Log value of compound concentration • Y: Inhibition rate (% inh)” left out

SMILES: C#Cc1c(F)ccc2cc(O)cc(-c3nc(C#CC)c4c(N5CC6CCC(C5)N6)nc(OCC56CCCN5CC(=C)C6)nc4c3F)c12 (centres unmarked) [Example 5]
- IC50 [1]: 0.07 nM

SMILES: C#Cc1c(F)ccc2cc(O)cc(-c3nc(C#C)c4c(N5CC6CCC(C5)N6)nc(OCC56CC(=C)CN5CC(=C)C6)nc4c3F)c12 [Example 6]
- IC50 [1]: 1.6 nM

SMILES: C#Cc1c(F)ccc2cc(O)cc(-c3nc(C#CC)c4c(N5CC6CCC(C5)N6)nc(OCC56CCCN5CC(=CF)C6)nc4c3F)c12 (centres unmarked) [Example 11]
- IC50 [1]: 0.03 nM

SMILES: C#Cc1c(F)ccc2cc(O)cc(-c3nc(C#CC)c4c(N5CC6CCC(C5)N6)nc(OCC56CC(=C)CN5CC(=C)C6)nc4c3F)c12 [Example 2]
- IC50 [2]: 0.86 nM
- IC50 [1]: 0.17 nM
- IC50 [3]: 0.4 nM
- IC50 [4]: 0.42 nM
- IC50 [5]: 0.85 nM
- IC50 [6]: 0.77 nM

SMILES: C=C1CN2CC(=C)CC2(COc2nc(N3CC4CCC(C3)N4)c3c(C#CC)nc(-c4cc(O)cc5ccc(F)c(CC)c45)c(F)c3n2)C1 [Example 9]
- IC50 [1]: 0.19 nM

SMILES: C=C1CN2CC(=C)CC2(COc2nc(N3CC4CCC(C3)N4)c3c(C#CC)nc(-c4cc(N)cc(Cl)c4C(F)(F)F)c(F)c3n2)C1 [Example 10]
- IC50 [1]: 12.4 nM
